Measurements taken from ChEMBL document CHEMBL3091369, “Synthesis and structure-activity relationships of new carbonyl guanidine derivatives as novel dual 5-HT2B and 5-HT7 receptor antagonists” (Bioorg Med Chem, 2013).
pIC50, pKi: −log10 of the molar value. Blank lines part the entries; values can stand above or below the compound they belong to.

Columns and labels:
[1] = molecular target: T1, 5-hydroxytryptamine receptor 2B (Homo sapiens, UniProt P41595); experiment: Displacement of [3H]Mesulergine from human 5-HT2B receptor expressed in HEK293 cells by liquid scintillation counting analysis; format: cell-based
T1 sequence (P41595 whole entry): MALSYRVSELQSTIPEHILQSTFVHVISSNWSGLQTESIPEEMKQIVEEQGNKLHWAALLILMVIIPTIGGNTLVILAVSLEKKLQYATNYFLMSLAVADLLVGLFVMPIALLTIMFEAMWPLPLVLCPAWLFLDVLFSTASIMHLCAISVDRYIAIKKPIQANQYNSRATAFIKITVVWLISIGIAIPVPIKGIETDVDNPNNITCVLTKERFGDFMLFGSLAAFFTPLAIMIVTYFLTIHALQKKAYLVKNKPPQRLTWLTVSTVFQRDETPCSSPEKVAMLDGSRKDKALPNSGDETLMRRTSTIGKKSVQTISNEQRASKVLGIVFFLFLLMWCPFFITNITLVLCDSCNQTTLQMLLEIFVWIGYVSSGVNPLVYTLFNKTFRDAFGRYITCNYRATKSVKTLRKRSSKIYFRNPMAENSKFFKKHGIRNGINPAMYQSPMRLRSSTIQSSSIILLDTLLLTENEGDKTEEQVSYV

[2] = molecular target: T2, 5-hydroxytryptamine receptor 7 (Homo sapiens, UniProt P34969); experiment: Displacement of [3H]5-HT from human 5-HT7 receptor expressed in CHO cells by liquid scintillation counting analysis; format: cell-based
T2 sequence (P34969 whole entry): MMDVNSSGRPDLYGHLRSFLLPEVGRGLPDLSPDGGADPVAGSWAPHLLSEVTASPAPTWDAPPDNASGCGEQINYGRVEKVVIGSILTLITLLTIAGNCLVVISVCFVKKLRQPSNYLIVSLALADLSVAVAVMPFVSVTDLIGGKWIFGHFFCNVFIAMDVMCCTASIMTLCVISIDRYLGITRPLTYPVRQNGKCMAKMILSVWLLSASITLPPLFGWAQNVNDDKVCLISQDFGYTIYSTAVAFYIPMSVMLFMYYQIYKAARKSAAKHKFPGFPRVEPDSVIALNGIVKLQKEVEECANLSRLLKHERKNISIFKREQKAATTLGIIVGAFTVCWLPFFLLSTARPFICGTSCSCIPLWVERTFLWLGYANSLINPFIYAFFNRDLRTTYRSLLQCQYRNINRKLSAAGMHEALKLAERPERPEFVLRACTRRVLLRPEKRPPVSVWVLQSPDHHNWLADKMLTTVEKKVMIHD

[3] = molecular target: T3, Adrenergic receptor alpha-1 (Homo sapiens, UniProt P35348+P25100+P35368); experiment: Binding affinity to adrenergic alpha1 receptor (unknown origin)
T3 sequence (P35348 whole entry): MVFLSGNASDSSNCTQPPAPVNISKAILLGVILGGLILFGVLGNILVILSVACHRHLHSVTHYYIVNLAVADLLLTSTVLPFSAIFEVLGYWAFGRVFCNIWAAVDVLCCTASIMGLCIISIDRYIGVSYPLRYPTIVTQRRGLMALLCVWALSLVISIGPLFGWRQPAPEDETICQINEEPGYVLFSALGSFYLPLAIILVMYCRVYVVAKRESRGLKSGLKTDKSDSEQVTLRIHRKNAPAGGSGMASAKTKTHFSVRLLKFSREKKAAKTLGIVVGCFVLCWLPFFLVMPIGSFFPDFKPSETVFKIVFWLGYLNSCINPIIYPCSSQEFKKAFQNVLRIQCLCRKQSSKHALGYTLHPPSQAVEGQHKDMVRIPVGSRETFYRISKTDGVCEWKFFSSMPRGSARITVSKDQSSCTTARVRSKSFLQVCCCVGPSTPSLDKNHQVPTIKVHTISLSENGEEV
T3 sequence (P25100 whole entry): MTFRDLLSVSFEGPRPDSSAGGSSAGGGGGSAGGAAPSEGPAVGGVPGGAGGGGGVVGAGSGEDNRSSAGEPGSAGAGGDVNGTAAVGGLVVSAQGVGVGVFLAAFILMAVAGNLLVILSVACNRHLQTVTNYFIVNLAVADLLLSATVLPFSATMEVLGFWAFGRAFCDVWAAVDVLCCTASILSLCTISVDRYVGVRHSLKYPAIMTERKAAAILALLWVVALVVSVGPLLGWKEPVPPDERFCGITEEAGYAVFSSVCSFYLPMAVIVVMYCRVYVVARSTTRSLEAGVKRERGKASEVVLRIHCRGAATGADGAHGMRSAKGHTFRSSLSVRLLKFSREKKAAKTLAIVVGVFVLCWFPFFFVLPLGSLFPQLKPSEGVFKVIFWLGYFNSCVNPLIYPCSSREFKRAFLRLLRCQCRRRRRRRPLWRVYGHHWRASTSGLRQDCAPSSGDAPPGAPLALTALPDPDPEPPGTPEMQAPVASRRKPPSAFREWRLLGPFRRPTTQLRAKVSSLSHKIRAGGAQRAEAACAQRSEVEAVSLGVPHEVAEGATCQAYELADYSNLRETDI
T3 sequence (P35368 whole entry): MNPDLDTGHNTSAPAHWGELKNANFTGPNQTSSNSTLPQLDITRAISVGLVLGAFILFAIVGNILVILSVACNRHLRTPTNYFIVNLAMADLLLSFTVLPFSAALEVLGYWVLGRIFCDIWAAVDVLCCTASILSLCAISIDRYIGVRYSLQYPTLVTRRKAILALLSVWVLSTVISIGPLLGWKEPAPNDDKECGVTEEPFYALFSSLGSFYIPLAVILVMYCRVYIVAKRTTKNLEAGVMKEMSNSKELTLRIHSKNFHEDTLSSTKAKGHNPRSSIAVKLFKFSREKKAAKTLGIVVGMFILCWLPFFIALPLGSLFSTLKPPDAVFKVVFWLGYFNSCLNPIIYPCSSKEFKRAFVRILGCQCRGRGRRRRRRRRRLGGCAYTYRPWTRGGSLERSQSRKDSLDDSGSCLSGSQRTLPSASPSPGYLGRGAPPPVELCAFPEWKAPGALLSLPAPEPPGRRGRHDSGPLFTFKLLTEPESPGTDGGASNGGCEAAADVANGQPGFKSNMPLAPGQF

[4] = molecular target: T4, Muscarinic acetylcholine receptor M1 (Homo sapiens, UniProt P11229); experiment: Binding affinity to muscarinic M1 receptor (unknown origin)
T4 sequence (P11229 whole entry): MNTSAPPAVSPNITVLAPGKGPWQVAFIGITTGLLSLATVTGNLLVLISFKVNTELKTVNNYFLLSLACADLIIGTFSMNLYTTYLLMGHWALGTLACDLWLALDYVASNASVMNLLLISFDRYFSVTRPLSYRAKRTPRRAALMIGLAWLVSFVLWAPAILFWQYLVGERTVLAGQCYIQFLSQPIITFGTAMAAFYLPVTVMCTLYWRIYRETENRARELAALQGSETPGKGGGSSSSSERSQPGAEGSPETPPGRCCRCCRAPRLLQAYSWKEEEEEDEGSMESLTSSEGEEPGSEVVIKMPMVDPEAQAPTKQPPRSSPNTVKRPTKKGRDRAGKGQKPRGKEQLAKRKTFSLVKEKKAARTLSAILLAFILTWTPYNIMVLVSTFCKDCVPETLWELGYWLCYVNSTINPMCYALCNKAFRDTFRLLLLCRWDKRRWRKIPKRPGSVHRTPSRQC

[5] = molecular target: T1, 5-hydroxytryptamine receptor 2B; experiment: Antagonist activity at human 5-HT2B receptor expressed in HEK293 cells coexpressing EBNA assessed as inhibition of 5-HT-induced IP metabolism incubated for 20 mins prior to substrate addition measured after 20 mins by liquid scintillation counting analysis; format: cell-based
[6] = molecular target: D(2) dopamine receptor (Homo sapiens, UniProt P14416); experiment: Binding affinity to dopamine D2 receptor (unknown origin)
Chain of D(2) dopamine receptor (P14416 whole entry): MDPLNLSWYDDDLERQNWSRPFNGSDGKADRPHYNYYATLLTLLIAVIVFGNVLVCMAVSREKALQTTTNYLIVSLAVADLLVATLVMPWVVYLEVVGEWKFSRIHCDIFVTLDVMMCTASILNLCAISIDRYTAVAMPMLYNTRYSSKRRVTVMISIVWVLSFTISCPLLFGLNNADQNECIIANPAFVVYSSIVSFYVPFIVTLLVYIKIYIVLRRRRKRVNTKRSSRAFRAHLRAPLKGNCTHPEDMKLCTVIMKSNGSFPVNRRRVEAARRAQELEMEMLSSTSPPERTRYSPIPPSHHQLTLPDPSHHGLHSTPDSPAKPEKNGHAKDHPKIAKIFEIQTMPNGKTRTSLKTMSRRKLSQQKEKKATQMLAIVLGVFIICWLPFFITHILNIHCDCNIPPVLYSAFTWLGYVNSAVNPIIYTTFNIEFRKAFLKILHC

[7] = Aqueous solubility of the compound in second liquid of Japanese pharmacopoeia at pH 6.8 after 20 hrs by liquid chromatographic analysis; format: physicochemical
[8] = molecular target: T5, 5-hydroxytryptamine receptor 2C (Homo sapiens, UniProt P28335); experiment: Binding affinity to 5-HT2C receptor (unknown origin)
T5 sequence (P28335 whole entry): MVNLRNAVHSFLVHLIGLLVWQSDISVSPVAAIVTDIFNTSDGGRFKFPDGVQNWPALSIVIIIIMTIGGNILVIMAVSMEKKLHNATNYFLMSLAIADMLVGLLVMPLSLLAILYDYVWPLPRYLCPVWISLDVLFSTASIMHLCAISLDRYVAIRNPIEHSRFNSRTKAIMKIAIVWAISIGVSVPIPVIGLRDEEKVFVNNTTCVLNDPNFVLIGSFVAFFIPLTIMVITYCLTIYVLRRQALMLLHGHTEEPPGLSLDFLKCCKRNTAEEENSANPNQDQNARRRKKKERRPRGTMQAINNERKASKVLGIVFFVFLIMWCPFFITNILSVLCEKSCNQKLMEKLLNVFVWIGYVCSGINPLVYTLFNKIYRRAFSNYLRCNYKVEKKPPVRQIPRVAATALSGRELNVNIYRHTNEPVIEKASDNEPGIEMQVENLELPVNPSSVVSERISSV

[9] = molecular target: 5-hydroxytryptamine receptor 2A (Homo sapiens, UniProt P28223); experiment: Binding affinity to 5-HT2A receptor (unknown origin)
Chain of 5-hydroxytryptamine receptor 2A (P28223 whole entry): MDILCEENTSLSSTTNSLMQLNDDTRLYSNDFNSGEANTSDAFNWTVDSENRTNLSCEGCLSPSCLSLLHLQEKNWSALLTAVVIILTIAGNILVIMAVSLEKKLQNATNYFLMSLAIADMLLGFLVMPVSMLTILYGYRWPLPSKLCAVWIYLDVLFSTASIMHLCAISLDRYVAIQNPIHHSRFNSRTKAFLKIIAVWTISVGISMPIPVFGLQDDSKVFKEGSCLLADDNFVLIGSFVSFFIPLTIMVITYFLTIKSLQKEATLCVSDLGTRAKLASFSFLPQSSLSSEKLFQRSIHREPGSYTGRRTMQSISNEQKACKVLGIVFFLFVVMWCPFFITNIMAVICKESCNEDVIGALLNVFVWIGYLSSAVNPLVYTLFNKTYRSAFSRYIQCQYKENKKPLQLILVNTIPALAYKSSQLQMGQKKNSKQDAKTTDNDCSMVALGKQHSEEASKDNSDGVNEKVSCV

[10] = molecular target: T2, 5-hydroxytryptamine receptor 7; experiment: Antagonist activity at human 5-HT7 receptor expressed in CHO cells assessed as inhibition of agonist-induced cAMP production at 10 uM incubated for 20 mins prior to substrate addition measured after 10 mins by EIA relative to control; format: functional, cell-based
[11] = system: Cavia porcellus; experiment: Suppression of 5-HT induced dural FITC-labeled BSA extravasation in ip dosed Hartley guinea pig pretreated for 30 mins followed by FITC-labeled BSA administration measured after 16 hrs by fluorescence assay; format: functional, organism-based
[12] = system: Cavia porcellus; experiment: Suppression of 5-HT induced dural FITC-labeled BSA extravasation in po dosed Hartley guinea pig pretreated for 30 mins followed by FITC-labeled BSA administration measured after 16 hrs by fluorescence assay; format: functional, organism-based
[13] = system: Cavia porcellus; experiment: Suppression of 5-HT induced dural FITC-labeled BSA extravasation in Hartley guinea pig at 3 mg/kg, ip pretreated for 30 mins followed by FITC-labeled BSA administration measured after 16 hrs by fluorescence assay relative to control; format: functional; details: route intraperitoneal

Compound: NC(N)=NC(=O)c1ccc2c(c1)-c1ccccc1C2O (configuration not stated)
- pKi [1]: 7.06
- pKi [2]: < 6.00

Compound: NC(N)=NC(=O)c1ccc2c(c1)Nc1ccccc1O2
- pKi [1]: 8.44
- pKi [2]: 6.84

Compound: NC(N)=NC(=O)c1ccc2c(c1)[nH]c1ccccc12
- pKi [1]: 8.00
- pKi [2]: 7.38

Compound: Cl.NC(N)=NC(=O)c1ccc2c(c1)C(O)c1ccccc1-2 (configuration not stated)
- Ki [3]: > 1000 nM
- pKi [4]: < 6.00
- Activity [11]: Dose-dependent effect
- pIC50 [5]: 7.71
- pKi [6]: < 6.00
- Activity [12]: Dose-dependent effect
- solubility at 20 h [7]: < 10 µg/mL
- pKi [8]: < 6.00
- pKi [9]: < 6.00
- Imax [10]: 97%
- Activity [13]: 93%

Compound: CC(C)c1cc(-c2ccc(F)c3ccccc23)nc(N)n1
- Activity [13]: 60%

Compound: NC(N)=NC(=O)c1ccc2c(c1)oc1ccccc12
- pKi [1]: 8.68
- pKi [2]: < 7.00

Compound: NC(N)=NC(=O)/C=C/c1ccc2c(c1)C(O)c1ccccc1-2 (configuration not stated)
- pKi [1]: 7.28
- pKi [2]: < 7.00

Compound: NC(N)=NC(=O)c1ccc2c(c1)Oc1ccccc1N2
- pKi [1]: 8.62
- pKi [2]: < 6.00

Compound: NC(N)=NC(=O)c1cccc2c1-c1ccccc1C2
- pKi [1]: 7.56
- pKi [2]: < 6.00

Further lines, results first:

- Ki [3]: 790 nM
- pKi [4]: < 6.00
- pIC50 [5]: 7.44
- pKi [6]: 5.85
- pKi [1]: 8.74
- solubility at 20 h [7]: < 1 µg/mL
- pKi [8]: 6.70
- pKi [2]: 7.91
- pKi [9]: 6.00
- Imax [10]: 98%
Compound: NC(N)=NC(=O)c1ccc2c(c1)Cc1ccccc1-2

- pKi [1]: 8.96
- pKi [2]: 6.62
Compound: NC(N)=NC(=O)c1cccc2c1Cc1ccccc1-2

- Ki [3]: 75 nM
- pKi [4]: 8.70
- pKi [6]: 8.62
- pKi [1]: 8.70
- pKi [8]: 8.85
- pKi [2]: 7.60
- pKi [9]: 8.12
Compound: CN1CCC(=C2c3ccccc3CCc3sccc32)CC1 [PIZOTYLINE]

- pKi [1]: 9.40
- pKi [2]: 6.73
Compound: NC(N)=NC(=O)c1ccc2c(c1)C(=O)c1ccccc1-2
